From patent publication US5096918A, “Isoindoline nitromethane derivatives” (Imperial Chemical Industries PLC, priority 1989, dated 1992)

Biological target: T1, aldose reductase (Bos taurus, UniProt P16116)
T1 construct: isolated in known manner from bovine lenses; from tissue; host or cells: bovine lens
Assay: in vitro inhibition of partially purified aldose reductase (reduction of glucose to sorbitol, spectrophotometric)
Assay type: biochemical
Conditions: partially purified enzyme from bovine lenses
Experimental: Thus, partially purified aldose reductase is isolated in known manner from bovine lenses. The percentage inhibition of this enzyme's ability in vitro to catalyse the reduction of aldoses to polyhydric alcohols, and particularly to reduce glucose to sorbitol, caused by a test compound is then determined using standard spectrophotometric methods.

Row | IC50 [nM] | Structure (SMILES)
1 | 330 | O=[N+]([O-])CS(=O)(=O)N1CCCCC1 [Example 1, N-(nitromethylsulphonyl)piperidine]
2 | 880 | O=[N+]([O-])CS(=O)(=O)N1CCOCC1 [N-(nitromethylsulphonyl)morpholine]
